# Where “and” joins values, the source holds several entries; their conditions need not be identical. Equal entries are not always repeated. Toxic doses and inconclusive results are not listed.
# System: CD2F1 mice, L1210 leukemia ip, survival T/C
# Assay: NCI In Vivo Anticancer Drug Screen. Data for tumor model L1210 Leukemia (intraperitoneal) in CD2F1 (CDF1) mice
# Details: endpoint: mean survival time, higher = longer survival
# Outline: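 Antitumor effect is scored in animals hosting a serially transplanted tumor. Values compare compound-dosed animals against vehicle-only controls as a simple quotient.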
# [1] = dose: 100.0 mg/kg/injection, schedule: Q01DX009 (ip), vehicle: saline with Tween-80
# [2] = dose: 200.0 mg/kg/injection, schedule: Q01DX009 (ip), vehicle: saline with Tween-80
# [3] = dose: 400.0 mg/kg/injection, schedule: Q01DX009 (ip), vehicle: saline with Tween-80
# [4] = dose: 100.0 mg/kg/injection, schedule: Q04DX003 (ip), vehicle: saline with Tween-80
# [5] = dose: 200.0 mg/kg/injection, schedule: Q04DX003 (ip), vehicle: saline with Tween-80
# [6] = dose: 12.5 mg/kg/injection, schedule: Q01DX009 (ip), vehicle: saline
# [7] = dose: 25.0 mg/kg/injection, schedule: Q01DX009 (ip), vehicle: saline
# [8] = dose: 50.0 mg/kg/injection, schedule: Q01DX009 (ip), vehicle: saline
# [9] = dose: 100.0 mg/kg/injection, schedule: Q04DX003 (ip), vehicle: saline
# [10] = dose: 200.0 mg/kg/injection, schedule: Q04DX003 (ip), vehicle: saline
# [11] = dose: 400.0 mg/kg/injection, schedule: Q04DX003 (ip), vehicle: saline with Tween-80
structure (smiles),measurement,setting,value
N=[N+]=CC(=O)CCC(NC(=O)C(CCC(=O)C=[N+]=N)NC(=O)CCC(N)C(=O)O)C(=O)O (configuration not stated),T/C,"dose: 0.01 mg/kg/injection, schedule: Q01DX009 (ip), vehicle: water",95 % of control
same,T/C,"dose: 0.03 mg/kg/injection, schedule: Q01DX009 (ip), vehicle: water",96 % of control
same,T/C,"dose: 0.05 mg/kg/injection, schedule: Q01DX009 (ip), vehicle: other",115 % of control and 112 % of control
same,T/C,"dose: 0.05 mg/kg/injection, schedule: Q01DX009 (ip), vehicle: water",115 % of control
same,T/C,"dose: 0.05 mg/kg/injection, schedule: Q01DX009 (oral), vehicle: water",103 % of control
same,T/C,"dose: 0.05 mg/kg/injection, schedule: Q01DX009 (sc), vehicle: water",116 % of control
same,T/C,"dose: 0.1 mg/kg/injection, schedule: Q01DX009 (ip), vehicle: other",152 % of control
same,T/C,"dose: 0.1 mg/kg/injection, schedule: Q01DX009 (oral), vehicle: water",107 % of control
same,T/C,"dose: 0.18 mg/kg/injection, schedule: Q01DX017 (ip), vehicle: saline",157 % of control
same,T/C,"dose: 0.2 mg/kg/injection, schedule: Q01DX009 (oral), vehicle: water",120 % of control
same,T/C,"dose: 0.2 mg/kg/injection, schedule: Q01DX009 (sc), vehicle: water",101 % of control
same,T/C,"dose: 0.3 mg/kg/injection, schedule: Q01DX017 (ip), vehicle: saline",111 % of control
same,T/C,"dose: 0.4 mg/kg/injection, schedule: Q01DX009 (oral), vehicle: water",90 % of control
same,T/C,"dose: 0.4 mg/kg/injection, schedule: Q01DX009 (sc), vehicle: water",98 % of control
same,T/C,"dose: 0.5 mg/kg/injection, schedule: Q01DX009 (ip), vehicle: other",116 % of control and 96 % of control and 97 % of control
same,T/C,"dose: 0.5 mg/kg/injection, schedule: Q01DX017 (ip), vehicle: saline",112 % of control
same,T/C,"dose: 1.0 mg/kg/injection, schedule: Q01DX009 (ip), vehicle: other",87 % of control
same,T/C,"dose: 1.6 mg/kg/injection, schedule: Q03HX024 (ip), vehicle: water",100 % of control
same,T/C,"dose: 3.1 mg/kg/injection, schedule: Q03HX008 (ip), vehicle: water",110 % of control
same,T/C,"dose: 3.1 mg/kg/injection, schedule: Q03HX024 (ip), vehicle: water",87 % of control
same,T/C,"dose: 6.25 mg/kg/injection, schedule: Q04DX003 (ip), vehicle: water",155 % of control
same,T/C,"dose: 7.5 mg/kg/injection, schedule: Q04DX003 (ip), vehicle: other",162 % of control and 165 % of control and 168 % of control
same,T/C,"dose: 12.5 mg/kg/injection, schedule: Q04DX003 (ip), vehicle: water",160 % of control
same,T/C,"dose: 15.0 mg/kg/injection, schedule: Q04DX003 (ip), vehicle: other",168 % of control and 177 % of control and 191 % of control
same,T/C,"dose: 25.0 mg/kg/injection, schedule: Q04DX003 (ip), vehicle: water",178 % of control
same,T/C,"dose: 25.0 mg/kg/injection, schedule: Q08DX002 (ip), vehicle: water",169 % of control
same,T/C,"dose: 30.0 mg/kg/injection, schedule: Q04DX003 (ip), vehicle: other",178 % of control and 190 % of control and 191 % of control
same,T/C,"dose: 50.0 mg/kg/injection, schedule: Q08DX002 (ip), vehicle: water",165 % of control
same,T/C,"dose: 60.0 mg/kg/injection, schedule: Q04DX003 (ip), vehicle: other",155 % of control and 196 % of control and 203 % of control
same,T/C,"dose: 100.0 mg/kg/injection, schedule: Q01DX001 (oral), vehicle: water",124 % of control
same,T/C,"dose: 100.0 mg/kg/injection, schedule: Q01DX001 (sc), vehicle: water",96 % of control
same,T/C,"dose: 100.0 mg/kg/injection, schedule: Q04DX003 (ip), vehicle: water",109 % of control
same,T/C,"dose: 100.0 mg/kg/injection, schedule: Q08DX002 (ip), vehicle: water",158 % of control
same,T/C,"dose: 200.0 mg/kg/injection, schedule: Q01DX001 (ip), vehicle: water",118 % of control
same,T/C,"dose: 200.0 mg/kg/injection, schedule: Q01DX001 (oral), vehicle: water",121 % of control
same,T/C,"dose: 400.0 mg/kg/injection, schedule: Q01DX001 (ip), vehicle: water",92 % of control
On1ccnc2nncc1-2,T/C,"dose: 11.3 mg/kg/injection, schedule: Q01DX005 (ip), vehicle: other",104 % of control
same,T/C,"dose: 22.5 mg/kg/injection, schedule: Q01DX005 (ip), vehicle: other",104 % of control
same,T/C,"dose: 45.0 mg/kg/injection, schedule: Q01DX005 (ip), vehicle: other",101 % of control
same,T/C,"dose: 90.0 mg/kg/injection, schedule: Q01DX005 (ip), vehicle: other",97 % of control
same,T/C,"dose: 180.0 mg/kg/injection, schedule: Q01DX005 (ip), vehicle: other",93 % of control
same,T/C,"dose: 200.0 mg/kg/injection, schedule: Q01DX005 (ip), vehicle: other",102 % of control
same,T/C,"dose: 400.0 mg/kg/injection, schedule: Q01DX005 (ip), vehicle: other",106 % of control
O=S(=O)(c1ccccc1)c1ccc(Br)cc1,T/C,[1],94 % of control
same,T/C,[2],96 % of control
same,T/C,[3],98 % of control
C=C(Cl)CNC(N)=S,T/C,[4],99 % of control
same,T/C,[5],98 % of control
Nc1nn[nH]n1,T/C,[1],95 % of control
same,T/C,[2],90 % of control
same,T/C,[3],94 % of control
CN1C(C)(C)CC(CN2c3ccccc3Sc3ccccc32)C1(C)C (configuration not stated),T/C,[4],97 % of control
same,T/C,[5],104 % of control
O=C(CN1CC1)NCCCCCCCCCNC(=O)CN1CC1,T/C,"dose: 22.0 mg/kg/injection, schedule: Q01DX001 (ip), vehicle: carboxymethylcellulose (CMC)",113 % of control
same,T/C,"dose: 33.0 mg/kg/injection, schedule: Q01DX001 (ip), vehicle: carboxymethylcellulose (CMC)",117 % of control
O=S(=O)(O)SCCN1CCCCC1,T/C,[6],104 % of control
same,T/C,"dose: 12.5 mg/kg/injection, schedule: Q04DX003 (ip), vehicle: saline sonified",102 % of control
same,T/C,[7],106 % of control
same,T/C,"dose: 25.0 mg/kg/injection, schedule: Q04DX003 (ip), vehicle: saline sonified",101 % of control
same,T/C,[8],104 % of control
same,T/C,"dose: 50.0 mg/kg/injection, schedule: Q04DX003 (ip), vehicle: saline sonified",91 % of control
N=c1cc([N+](=O)[O-])ccn1O,T/C,"dose: 100.0 mg/kg/injection, schedule: Q01DX001 (ip), vehicle: saline",97 % of control
same,T/C,"dose: 200.0 mg/kg/injection, schedule: Q01DX001 (ip), vehicle: saline",97 % of control
same,T/C,"dose: 400.0 mg/kg/injection, schedule: Q01DX001 (ip), vehicle: saline",105 % of control
CC(=O)C(CN(C)C)c1ccccc1 (configuration not stated),T/C,[9],95 % of control
same,T/C,[10],107 % of control
Cc1ccc(N=Nc2sc(N)nc2-c2cccc([N+](=O)[O-])c2)cc1,T/C,"dose: 100.0 mg/kg/injection, schedule: Q01DX001 (ip), vehicle: saline with Tween-80",89 % of control
same,T/C,"dose: 200.0 mg/kg/injection, schedule: Q01DX001 (ip), vehicle: saline with Tween-80",96 % of control
CCN(C(=O)CCl)C(C)(C)C(SSSC(c1ccc(Cl)cc1)C(C)(C)N(CC)C(=O)CCl)c1ccc(Cl)cc1 (configuration not stated),T/C,[6],96 % of control
same,T/C,[7],102 % of control
same,T/C,[8],95 % of control and 106 % of control
same,T/C,"dose: 100.0 mg/kg/injection, schedule: Q01DX009 (ip), vehicle: saline",100 % of control
CCC[CH2][Sn]([CH2]CCC)([O]C(=O)COc1ccc(C(=O)c2ccccc2)c(O)c1)[O]C(=O)COc1ccc(C(=O)c2ccccc2)c(O)c1,T/C,"dose: 1.56 mg/kg/injection, schedule: Q01DX001 (ip), vehicle: saline with Tween-80",95 % of control
same,T/C,"dose: 3.13 mg/kg/injection, schedule: Q01DX001 (ip), vehicle: saline with Tween-80",98 % of control
same,T/C,"dose: 6.25 mg/kg/injection, schedule: Q01DX001 (ip), vehicle: saline with Tween-80",98 % of control
same,T/C,"dose: 12.5 mg/kg/injection, schedule: Q01DX001 (ip), vehicle: saline with Tween-80",105 % of control
CC(=O)Nc1cccc([N+](=O)[O-])c1,T/C,"dose: 100.0 mg/kg/injection, schedule: Q04DX003 (ip), vehicle: Klucel (hydroxypropylcellulose) (HPC)",94 % of control
same,T/C,"dose: 200.0 mg/kg/injection, schedule: Q04DX003 (ip), vehicle: Klucel (hydroxypropylcellulose) (HPC)",97 % of control
COC/C=N/N(C)C,T/C,"dose: 75.0 mg/kg/injection, schedule: Q01DX001 (ip), vehicle: saline",100 % of control
same,T/C,"dose: 150.0 mg/kg/injection, schedule: Q01DX001 (ip), vehicle: saline",96 % of control
CCOP(=O)(OCC)C(C)OC (configuration not stated),T/C,[9],97 % of control
same,T/C,[10],108 % of control
same,T/C,"dose: 400.0 mg/kg/injection, schedule: Q04DX003 (ip), vehicle: saline",97 % of control
N#CCCC1(CCC#N)c2ccccc2-c2ccccc21,T/C,[4],95 % of control
same,T/C,[5],100 % of control
same,T/C,[11],105 % of control
CC1C2CC3C(OC(=O)C13)C2I (configuration not stated),T/C,[1],95 % of control
same,T/C,[4],95 % of control
same,T/C,[2],86 % of control
same,T/C,[5],89 % of control
same,T/C,[3],92 % of control
same,T/C,[11],87 % of control

# Source: PubChem BioAssay AID256 (DTP/NCI, 2004)
